pKi: −log10 of the molar value.
Assays:
Rat SERT = biological target: T1, Rat SERT (Rattus norvegicus, UniProt P31652); assay: Rat brain SERT binding ([3H]-citalopram displacement); conditions: rat brain membranes without cerebellum, 0.6 nM [3H]-citalopram, 60 min at 25° C.; read-out: Rat SERT Ki
T1 construct: A rat brain without cerebellum (Zivic Laboratories, Inc.—Pittsburgh, Pa.) was homogenized; tissue Zivic Laboratories, Inc; host or cells: rat brain without cerebellum, membranes
Method: The supernatant was removed and re-centrifuged at 15,000 rpm for 30 min. […] Membranes were incubated with 0.6 nM [^3H]-Citalopram plus/minus test compounds for 60 min at 25° C. and harvested by rapid filtration over GF/C glass fiber filters (pretreated with 0.3% polyethylenimine) followed by four washes with ice-cold buffer.

human SERT = biological target: T2, human SERT (Homo sapiens, UniProt P31645); assay: Human SERT binding (3H-citalopram displacement); conditions: HEK293 membranes expressing human SERT, rt 1 h
T2 construct: expressed in transfected cells; host or cells: HEK293 membranes
Method: Homogenized HEK293 (Human Embryonic Kidney) membranes expressing the human SERT were incubated with ^3H-citalopram (SERT) at rt for 1 h in 50 mM Tris, 120 mM NaCl, 5 mM KCl (pH 7.4). […] The membranes were washed and the radioactivity was counted as above.

human H3 receptor = biological target: T3, human H3 receptor (Homo sapiens, UniProt Q9Y5N1); assay: H3 receptor binding (N-[3H]-α-methylhistamine displacement); conditions: membranes of SK-N-MC cells expressing cloned human H3 receptor, 0.8 nM N-[3H]-α-methylhistamine, 60 min at 25° C.
T3 construct: expressed in transfected cells
T3 sequence (Q9Y5N1 whole entry): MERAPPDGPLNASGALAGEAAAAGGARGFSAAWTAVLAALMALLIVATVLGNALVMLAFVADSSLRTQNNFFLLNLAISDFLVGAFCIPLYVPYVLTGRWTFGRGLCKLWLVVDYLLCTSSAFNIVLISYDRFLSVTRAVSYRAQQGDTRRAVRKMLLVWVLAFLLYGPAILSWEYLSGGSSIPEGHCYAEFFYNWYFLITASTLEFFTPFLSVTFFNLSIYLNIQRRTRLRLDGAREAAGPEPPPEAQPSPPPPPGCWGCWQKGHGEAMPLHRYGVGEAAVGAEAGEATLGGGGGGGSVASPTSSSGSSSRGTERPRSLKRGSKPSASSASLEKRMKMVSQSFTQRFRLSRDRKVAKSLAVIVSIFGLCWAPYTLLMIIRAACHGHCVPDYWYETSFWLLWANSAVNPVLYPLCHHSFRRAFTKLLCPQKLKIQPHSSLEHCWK

T2 sequence (P31645 whole entry): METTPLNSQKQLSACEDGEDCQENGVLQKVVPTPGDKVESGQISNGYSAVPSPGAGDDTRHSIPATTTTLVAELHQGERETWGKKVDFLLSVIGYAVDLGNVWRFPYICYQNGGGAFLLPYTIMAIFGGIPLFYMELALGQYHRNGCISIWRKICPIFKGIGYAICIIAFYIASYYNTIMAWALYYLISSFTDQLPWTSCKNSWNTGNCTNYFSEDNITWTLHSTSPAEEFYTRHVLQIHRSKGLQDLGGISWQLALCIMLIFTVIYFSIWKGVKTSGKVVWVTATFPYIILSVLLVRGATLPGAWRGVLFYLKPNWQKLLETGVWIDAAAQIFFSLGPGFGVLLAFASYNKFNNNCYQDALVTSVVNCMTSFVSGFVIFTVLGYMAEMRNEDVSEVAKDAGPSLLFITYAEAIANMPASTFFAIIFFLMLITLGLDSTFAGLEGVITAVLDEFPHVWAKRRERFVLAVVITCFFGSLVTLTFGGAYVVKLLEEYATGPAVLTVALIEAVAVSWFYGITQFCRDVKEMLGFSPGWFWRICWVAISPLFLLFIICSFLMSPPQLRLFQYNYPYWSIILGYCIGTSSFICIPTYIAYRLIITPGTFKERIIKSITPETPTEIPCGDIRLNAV
T1 sequence (P31652 whole entry): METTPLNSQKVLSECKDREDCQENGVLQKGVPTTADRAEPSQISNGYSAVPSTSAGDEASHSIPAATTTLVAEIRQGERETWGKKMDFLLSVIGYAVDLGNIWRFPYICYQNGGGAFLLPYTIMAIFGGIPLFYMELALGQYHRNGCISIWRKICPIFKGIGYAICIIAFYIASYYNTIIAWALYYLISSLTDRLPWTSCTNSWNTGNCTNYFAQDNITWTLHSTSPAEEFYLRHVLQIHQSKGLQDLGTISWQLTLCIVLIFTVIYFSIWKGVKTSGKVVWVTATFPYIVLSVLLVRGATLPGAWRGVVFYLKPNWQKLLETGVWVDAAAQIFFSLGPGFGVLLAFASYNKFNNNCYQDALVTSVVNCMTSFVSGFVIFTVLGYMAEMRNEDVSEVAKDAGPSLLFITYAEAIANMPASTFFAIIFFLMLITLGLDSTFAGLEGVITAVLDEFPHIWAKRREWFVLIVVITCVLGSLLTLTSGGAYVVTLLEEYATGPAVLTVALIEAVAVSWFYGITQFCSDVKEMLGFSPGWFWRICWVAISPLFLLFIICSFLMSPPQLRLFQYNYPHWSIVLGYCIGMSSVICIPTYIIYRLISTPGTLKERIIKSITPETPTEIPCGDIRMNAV

Row | pKi (Rat SERT) | pKi (human SERT) | pKi (human H3 receptor) | Structure (SMILES)
1 | 8.70 | 8.70 | 8.52 | COc1ccc(C2CN(C)Cc3cc(OCCCN4CCC[C@@H]4CO)ccc32)cc1 (stereo partly drawn) [Example 30, (1-{3-[4-(4-Methoxy-phenyl)-2-methyl-1,2,3,4-tetrahydro-isoquinolin-7-yloxy]-propyl}-pyrrolidin-(2R)-yl)-methanol]
2 | 8.30 | 8.52 | 7.96 | CSc1ccc(C2CN(C)Cc3cc(OCC4CCN(C5CCC5)CC4)ccc32)cc1 (stereo not drawn) [Example 104, 7-(1-Cyclobutyl-piperidin-4-ylmethoxy)-2-methyl-4-(4-methylsulfanyl-phenyl)-1,2,3,4-tetrahydro-isoquinoline]
3 | 8.70 | 8.70 | 8.10 | COc1ccc(C2CN(C)Cc3cc(OCCCN4CCN(C(C)C)CC4)ccc32)cc1 (stereo not drawn) [Example 199, 7-[3-(4-Isopropyl-piperazin-1-yl)-propoxy]-4-(4-methoxy-phenyl)-2-methyl-1,2,3,4-tetrahydro-isoquinoline]
4 | 8.40 | 8.15 | 7.89 | COc1ccc(C2CN(C)Cc3cc(CCCCN4CCN(C(C)C)CC4)ccc32)cc1 (stereo not drawn) [Example 283, 7-[4-(4-Isopropyl-piperazin-1-yl)-butyl]-4-(4-methoxy-phenyl)-2-methyl-1,2,3,4-tetrahydro-isoquinoline]
5 | 8.00 | 8.15 | 6.56 | COCCN(CCCOc1ccc2c(c1)CN(C)CC2c1ccc(OC)cc1)CCOC (stereo not drawn) [Example 17, Bis-(2-methoxy-ethyl)-{3-[4-(4-methoxy-phenyl)-2-methyl-1,2,3,4-tetrahydro-isoquinolin-7-yloxy]-propyl}-amine]
6 | 8.70 | 8.30 | 7.92 | COc1ccc(C2CN(C)Cc3cc(OCCCN4CCC(CCO)CC4)ccc32)cc1 (stereo not drawn) [Example 26, 2-(1-{3-[4-(4-Methoxy-phenyl)-2-methyl-1,2,3,4-tetrahydro-isoquinolin-7-yloxy]-propyl}-piperidin-4-yl)-ethanol]
7 | 7.96 | 7.96 | 9.00 | COc1cccc(C2CN(C)Cc3cc(OCC4CCN(C(C)C)CC4)ccc32)c1 (stereo not drawn) [Example 91, 7-(1-Isopropyl-piperidin-4-ylmethoxy)-4-(3-methoxy-phenyl)-2-methyl-1,2,3,4-tetrahydro-isoquinoline]
8 | 8.05 | 8.00 | 9.00 | COc1ccc(C2CN(C)Cc3cc(OC4CCN(C(C)C)CC4)ccc32)cc1 (stereo not drawn) [Example 117, 7-(1-Isopropyl-piperidin-4-yloxy)-4-(4-methoxy-phenyl)-2-methyl-1,2,3,4-tetrahydro-isoquinoline]
9 | 8.40 | 7.89 | 7.02 | COc1ccc(C2CN(C)Cc3cc(CCCCN4CCC(F)(F)CC4)ccc32)cc1 (stereo not drawn) [Example 280, 7-[4-(4,4-Difluoro-piperidin-1-yl)-butyl]-4-(4-methoxy-phenyl)-2-methyl-1,2,3,4-tetrahydro-isoquinoline]
10 | 8.00 | 7.96 | 5.62 | COc1ccc(C2CN(C)Cc3cc(OCCCN4CCN(C(=O)c5cccn5C)CC4)ccc32)cc1 (stereo not drawn) [Example 13, (4-{3-[4-(4-Methoxy-phenyl)-2-methyl-1,2,3,4-tetrahydro-isoquinolin-7-yloxy]-propyl}-piperazin-1-yl)-(1-methyl-1H-pyrrol-2-yl)-methanone]
11 | 8.40 | 8.10 | 7.66 | CSc1ccc(C2CN(C)Cc3cc(OCCCN4CCC(F)(F)CC4)ccc32)cc1 (stereo not drawn) [Example 216, 7-[3-(4,4-Difluoro-piperidin-1-yl)-propoxy]-2-methyl-4-(4-methylsulfanyl-phenyl)-1,2,3,4-tetrahydro-isoquinoline]
12 | 8.22 | 7.80 | 7.23 | CCOC(=O)N1CCN(CCCOc2ccc3c(c2)CN(C)CC3c2ccc(OC)cc2)CC1 (stereo not drawn) [Example 12, 4-{3-[4-(4-Methoxy-phenyl)-2-methyl-1,2,3,4-tetrahydro-isoquinolin-7-yloxy]-propyl}-piperazine-1-carboxylic acid ethyl ester]
13 | 7.55 | 7.52 | 8.70 | CN1Cc2cc(OCCCN3CCC(F)CC3)ccc2C(c2ccc(N3CCOCC3)cc2)C1 (stereo not drawn) [Example 134, 7-[3-(4-Fluoro-piperidin-1-yl)-propoxy]-2-methyl-4-(4-morpholin-4-yl-phenyl)-1,2,3,4-tetrahydro-isoquinoline]
14 | 9.00 | 8.30 | 8.30 | CSc1ccc(C2CN(C)Cc3cc(OCCCN4CCOC[C@@H]4C)ccc32)cc1 (stereo partly drawn) [Example 215, 2-Methyl-7-[3-(3S-methyl-morpholin-4-yl)-propoxy]-4-(4-methylsulfanyl-phenyl)-1,2,3,4-tetrahydro-isoquinoline]
15 | 8.70 | 8.52 | 8.70 | COc1ccc(C2CN(C)Cc3cc(OCCCN4CCCCC4CO)ccc32)cc1 (stereo not drawn) [Example 24, (1-{3-[4-(4-Methoxy-phenyl)-2-methyl-1,2,3,4-tetrahydro-isoquinolin-7-yloxy]-propyl}-piperidin-2-yl)-methanol]
16 | 7.89 | 7.66 | 7.89 | COc1ccc(C2CN(C)Cc3cc(OCC4CN(C5CC5)CCO4)ccc32)cc1 (mixture of isomers) [Example 259, 7-(4-Cyclopropyl-morpholin-2-ylmethoxy)-4-(4-methoxy-phenyl)-2-methyl-1,2,3,4-tetrahydro-isoquinoline]
17 | 8.52 | 7.82 | 8.10 | Cc1ccc(C2CN(C)Cc3cc(OCCCN4CCC(F)CC4)ccc32)cc1 (stereo not drawn) [Example 126, 7-[3-(4-Fluoro-piperidin-1-yl)-propoxy]-2-methyl-4-p-tolyl-1,2,3,4-tetrahydro-isoquinoline]
18 | 8.10 | 8.40 | 9.00 | CSc1ccc(C2CN(C)Cc3cc(OC4CCN(C(C)C)CC4)ccc32)cc1 (stereo not drawn) [Example 118, 7-(1-Isopropyl-piperidin-4-yloxy)-2-methyl-4-(4-methylsulfanyl-phenyl)-1,2,3,4-tetrahydro-isoquinoline]
19 | 7.43 | 7.89 | 7.35 | COc1ccc(C2CN(C)Cc3cc(C#CCCN4CCSCC4)ccc32)cc1 (stereo not drawn) [Example 277, 4-(4-Methoxy-phenyl)-2-methyl-7-(4-thiomorpholin-4-yl-but-1-ynyl)-1,2,3,4-tetrahydro-isoquinoline]
20 | 8.00 | 8.22 | 8.15 | COc1ccc(C2CN(C)Cc3cc(OCCCN4CCCC(C(F)(F)F)C4)ccc32)cc1 (stereo not drawn) [Example 25, 4-(4-Methoxy-phenyl)-2-methyl-7-[3-(3-trifluoromethyl-piperidin-1-yl)-propoxy]-1,2,3,4-tetrahydro-isoquinoline]

Row | Structure (SMILES) | pKi (Rat SERT) | pKi (human SERT) | pKi (human H3 receptor)
21 | COc1ccc(C2CN(C)Cc3cc(OCCCN4CCCC(F)C4)ccc32)cc1 (stereo not drawn) [Example 39, 7-[3-(3-Fluoro-piperidin-1-yl)-propoxy]-4-(4-methoxy-phenyl)-2-methyl-1,2,3,4-tetrahydro-isoquinoline] | 8.52 | 8.52 | 8.52
22 | COc1ccc(C2CN(C)Cc3cc(OCCCN4CCCC(CO)C4)ccc32)cc1 (stereo not drawn) [Example 23, (1-{3-[4-(4-Methoxy-phenyl)-2-methyl-1,2,3,4-tetrahydro-isoquinolin-7-yloxy]-propyl}-piperidin-3-yl)-methanol] | 8.70 | 8.40 | 8.70

— patent publication US20060194837A1, “Tetrahydroisoquinoline compounds” (priority 2004, published 2006)
